From patent publication US4143010A, “High retention wood preservative composition” (Canadian Patents and Development Limited, priority 1978, dated 1979)
Values after ≈ are worked out from the molar mass of the structure shown. Where two headings read alike, the source gives them in different places.

Assays:
[1] = Accelerated sublimation test of deposits on glass under vacuum; type: physicochemical; conditions: room temperature
Description: In order to determine the influence of chemical components in the preservative composition on loss of preservative (PCP) under accelerated sublimation conditions, three solutions have been prepared, separately, in carbon tetrachloride as a solvent (in percent w/v).
I. solution: PCP (3.5%) as a preservative.
Ii. solution; PCP (3.5%) and stearic acid (3.5%) as the hydrophobic agent.
III. Solution: PCP (3.5%) stearic acid (3.5%) and polystyrene (0.7%) as the organic polymer.
The same volume of each solution (0.07 ccm/sq.in.) has been poured on the surface of glass template and the solent evaporated at room temperature leaving solid deposits of each sample. Then these deposits of the 3 different preservative compositions (I--II--III), in which the amount of preservative (PCP) was the same, were exposed to vacuum at room temperature in order to accelerate the loss of components. The loss of weight of each single deposit was checked periodically and is expressed in FIG. 1 in percent of original weight of preservative (PCP).

[2] = Hydrophobicity (contact angle of water drops) of treated red pine; type: physicochemical; conditions: contact angle 180°
Procedure: The same solutions of preservative compositions (I--II--III), as in Example I have been used for impregnation of red pine wood samples in order to determine the effect on hydrophobicity of wood. After the samples of wood have been fully saturated by solutions I--II--III, the solvent was then evaporated at room temperature during the next 24hours, leaving solid deposits of the components in the wood. Measurements of contact angles of the surface of water drops on pertinent wood samples were made to show the relative hydrophobicity. The sooner the water soaks in the surface of wood (contact angle 180°) the lower the hydrophobicity of wood and vice versa.

[3] = Immobilization of PCP in spruce microsections, vacuum exposure and microscopy; type: physicochemical
Description: From both samples, microsections were cut from the wood tissues, approximately 0.35 -0.37 inch from the surface in the radial direction, i.e. within the area, where the PCP was positively detected by previous staining. Numerous microscopic sections (transverse) were made from both samples (A and B) separately. From each of both groups of microsections, typical sections were again microscopically stained with a Silver-Copper complex (which is the basis of the "Penta-Check") to detect again PCP in the microsections. Other typical unstained microsections were mounted into microscopic slides and without any staining examined microscopically. On the viewed microsections of treated wood typical spots were selected where the cell obviously contained significant deposits of PCP, and photographed, at the same magnification. Photographed microsections from sample A and B were then carefully removed from the slides, gently dried off by a touch of absorbent paper at the corner of the microsections, and transferred into a vacuum desiccator by a micromanipulator. The desiccator was then closed and very slowly evacuated. When the vacuum reached 29.5 inch Hg, the desiccator was sealed and the microsections left for 7 days ([…]). Then the desiccator, still at 27 inch vacuum, was slowly filled with air, opened and the microsections transferred onto glass slides and mounted for microscopic examination. This exposure under the same vacuum conditions (29.5 -27 inch Hg) for 7 days gave accelerated sublimation of PCP. The accelerated vacuum test is considered as an accurate simulation of the effect of ordinary atmosphere for an extended time. The microscopic slides were carefully examined, the same spot of each microsection was found (as photographed before vacuum exposure) and rephotographed (at the same magnification) for comparison.
Two pairs of photomicrographs are shown as FIGS. 1 (a ) and 1 (b ), and as FIGS. 2 (a ) and 2 (b ), being typical of observations of as many as 50 microsections. […]

Poria monticola [4] = assay: Soil-block culture decay test after leaching; type: cell-based; conditions: leached samples
Description: 5% (w/cv) D18 in chloroform and
5% (w/v) D18 with 1.4% wax and 1% polystyrene in chloroform solution.
After solvent removal by slow air drying and a short period of oven drying both series of samples were exposed to leaching in water under the same conditions (time of exposure, temperature and volume of water for leaching). […] After leaching the samples were further tested for toxicity against a wood-decaying fungus in a modified standard method of testing wood preservatives by laboratory soil-block cultures. Five untreated controls and 5 samples from each preservative series were put into soil jars on wooden feeder blocks inoculated with a standard test fungus Poria monticola. […] Jars were located in an incubation room maintained at 80° F. and 70% R.H. and were opened one by one in five consecutive time intervals, after 25 -- 32 -- 39 -- 46 and 65 days incubation. Wood specimens taken from the jars were oven dried and the weight loss due to decay calculated.

Leaching resistance test = type: physicochemical; conditions: for increase of leaching resistance due to additives: with additives versus without
Procedure: Solution I 5% w/v D-18 in chloroform
Solution II 5% w/v D-20 in chloroform
1.0% w/v polystyrene in chloroform
Solution IV same as III but with 5% w/v D-20.
uptake of preservative was calculated from the weight increase. Chloroform solvent was removed from the samples by air drying followed by drying in the oven at 105° C. for 4 hours. Each sample was leached with a standard volume of distilled water at room temperature. Every two hours the water surrounding each sample was removed for spectrophotometric measurement and was replaced by another standard volume of fresh distilled water. Total leaching time was 140 hours. The concentration of D18 and D20 in the leach water was determined by comparing specific absorbance in UV light with the absorbance of known concentrations of D18 and D20 in water. The leached amount of D18 and D20 was recalculated as a percent of the original amount impregnated into the samples before leaching.

[5] = Test of solubility of oxathiins and additives in various solvents; type: physicochemical
Description: Table 5 is a solubility chart summarizing a list of organic solvents solubilizing oxathiins and the two additives which can be applied in the same solution.

Lenzites trabea [6] = conditions: wood preservative threshold; cited from earlier work
Poria monticola [7] = assay: Effectiveness against decay fungi on spruce sections; type: cell-based, Poria monticola (A384); conditions: for Average Percentage of Wood Area Colonized: 19 days at 27° C
Procedure: (§1) The fungicidal activity of these compositions was determined in an accelerated experiment with the wood-rotting basidiomycetes Lenzites trabea (S644), Coniophora puteana (A302) and Poria monticola (A384) as test fungi. Small cross-the-grain sections of spruce wood (Picea glauca, a refractory species) were cut 40 microns thick on a microtome. All treatment specimens (0.5 × 0.5 inch) were cut from the same block of wood and were therefore homogeneous in nature. Wood specimens were treated to different retention levels with the active ingredients D18 or D20 with or without the additives. Two of each treatment series were placed on sterilized glass microscopic cover slips (22 mm^2) which were then deposited upon cultures of actively growing decay fungi in Petri dishes. Cultures were grown on a 2% malt extract, 2% agar medium. Two untreated specimens were included in each culture dish as controls. Treatment series were 0.1, 0.5 and 1.75 pcf. Incubation was for 19 days at 27° C. Each test was done in duplicate. Evaluation of the treated samples was made using a stereoscopic microscope (× 10.5 magnification). The percentage of the surface area of each specimen colonized by the test fungus was determined. The smaller the colonized surface area on each wood specimen, the more efficient the preservative composition used for specimen treatment.

Lenzites trabea [8] = assay: as above; type: cell-based, Lenzites trabea (S644); conditions: for Average Percentage of Wood Area Colonized: 19 days at 27° C
Procedure: as §1

Coniophora puteana = assay: as above; type: cell-based, Coniophora puteana (A302); conditions: 19 days at 27° C
Procedure: as §1

[9] = water, read-out: Solubility in water
[10] = retention 0.1 pcf, * = mycelia extended over the top but did not colonize all substrate underneath

SMILES | Cumulative Percent Preservative Leached from Wood (Leaching resistance test; 10 hours of exposure) [%] | Cumulative Percent Preservative Leached from Wood (Leaching resistance test; 30 hours of exposure) [%] | Cumulative Percent Preservative Leached from Wood (Leaching resistance test; 70 hours of exposure) [%] | Cumulative Percent Preservative Leached from Wood (Leaching resistance test; 140 hours of exposure) [%] | increase of leaching resistance due to additives (Leaching resistance test) | solubility [5, 9] [µg/mL] | Average Percentage of Wood Area Colonized (Poria monticola [7]; [10]) [Percentage] | Average Percentage of Wood Area Colonized (Poria monticola [7]; retention 0.5 pcf) [Percentage] | Average Percentage of Wood Area Colonized (Poria monticola [7]; retention 1.75 pcf) [Percentage] | Average Percentage of Wood Area Colonized (Lenzites trabea [8]; [10]) [Percentage] | Average Percentage of Wood Area Colonized (Lenzites trabea [8]; retention 0.5 pcf) [Percentage] | Average Percentage of Wood Area Colonized (Lenzites trabea [8]; retention 1.75 pcf) [Percentage] | Average Percentage of Wood Area Colonized (Coniophora puteana; retention 0.1 pcf) [Percentage] | Average Percentage of Wood Area Colonized (Coniophora puteana; retention 0.5 pcf) [Percentage] | Average Percentage of Wood Area Colonized (Coniophora puteana; retention 1.75 pcf) [Percentage] | other results
Oc1c(Cl)c(Cl)c(Cl)c(Cl)c1Cl [PCP, pentachlorophenol] | – | – | – | – | – | – | – | – | – | – | – | – | – | – | – | loss of PCP ([1]; deposit on glass under vacuum, % of original weight of PCP (FIG. 1)): 99%; time for water to soak into wood surface [2]: ≤ 40 s; PCP retention after vacuum exposure ([3]; 164 hours, 29.5-27 inch Hg): had disappeared after vacuum exposure; water repellency of microsections ([3]; microscopic sections): not highly water repellent; distribution of PCP in the cells ([3]; microscopic staining): deposited on the cell walls in individual spots
CC1=C(C(=O)Nc2ccccc2)SCCO1 [Solution D18, 2,3-dihydro-5-carboxanilido-6-methyl-1,4-oxathiin] | 14 | 27 | 43 | 56 | 51-57% | 170 (≈ 722 µM) | 40 | 0 | 0 | 25 | 0 | 0 | 30 | 5 | 5 | Cumulative Percent Weight Loss Due to Decay (Poria monticola [4]; 25 days of incubation): 2%; Cumulative Percent Weight Loss Due to Decay (Poria monticola [4]; 32 days of incubation): 4%; Cumulative Percent Weight Loss Due to Decay (Poria monticola [4]; 39 days of incubation): 6%; Cumulative Percent Weight Loss Due to Decay (Poria monticola [4]; 46 days of incubation): 10%; Cumulative Percent Weight Loss Due to Decay (Poria monticola [4]; 65 days of incubation): 21%; known threshold level (Lenzites trabea [6]): 1.1 mg/mL
CC1=C(C(=O)Nc2ccccc2)S(=O)(=O)CCO1 [Solution D20] | 10 | 38 | 54 | 61 | 17-27% | 1000 (≈ 3740 µM) | 50 | 15 | 10 | 50 | 0 | 0 | 40 | 10 | 10 | solubility ([5]; Carbon tetrachloride): - (+); solubility ([5]; Perchloroethylene): - (+); effect of additives on effectiveness (Poria monticola [7]): increase in the effectiveness of D20 due to the additives; effect of additives on effectiveness (Lenzites trabea [8]): increase in the effectiveness of D20 due to the additives
CCCCCCCCCCCCCCCCCC(=O)O [stearic acid] | – | – | – | – | – | – | – | – | – | – | – | – | – | – | – | reduction of PCP sublimation compared to the control ([1]; vacuum, control = PCP alone): 34%
